Test system: cysteine cathepsins
Assay: Inhibition of probe labeling in living RAW cells by JPM-OEt pretreatment
Type: cell-based, mouse
Details: pre-treatment of living RAW cells with JPM-OEt (50 μM, 1 hr); labeling by qABP 8
Protocol: RAW cells were cultured in DMEM (GIBCO) supplemented with 10% fetal bovine serum (FBS; GIBCO), 100 units/mL penicillin and 100 μg/mL streptomycin (GIBCO). 4T1 cells (ATCC) were cultured in RPMI (GIBCO) supplemented with 10% fetal bovine serum (FBS; GIBCO), 100 units/mL penicillin and 100 μg/mL streptomycin (GIBCO). All cells were cultured in a 5% CO2 humidified incubator at 37° C. For intact cell labeling, cells were exposed to probe (500× in DMSO) in culture media and incubated for 2 hr at 37° C., unless stated otherwise. Where indicated the cells were preincubated for 1 hr with the inhibitor JPM-OEt (500× in DMSO) or exposed to mouse serum (1 μl probe stock solution in DMSO added to 9 μl serum) for 4 hr before addition to the cells. After labeling, the cells were washed with PBS and resuspended in hypotonic lysis buffer (50 mM PIPES pH 7.4, 10 mM KCl, 5 mM MgCl2, 2 mM EDTA, 4 mM DTT, and 1% NP-40) and put on ice for 15 min, centrifuged at 4° C. for 30 min and supernatants were collected, and protein concentration was determined using a BCA kit (pierce). […] Labeling intensities were quantified using Image J software. […] After 15 min on ice and centrifugation at 4° C. for 30 min the supernatants were collected, and protein concentration was determined using a BCA kit (pierce). […] 4×SDS-sample buffer was added and the protein was denatured for 3 min at 100° C. and analyzed as described above. […]

With JPM-OEt the “blocking of probe labeling” value was “more than 90%”.

— patent US11655236B2, “Activity-based probe compounds, compositions, and methods of use” (THE BOARD OF TRUSTEES OF THE LELAND STANFORD JUNIOR …, priority 2013, dated 2023)
